Structures can show the parent of a compound that is named as a salt. Where two headings read alike, the source gives them in different places.
Legend:
[1] = AMES test / mutagenicity as stated in general text; details: dye intermediate
[2] = background statement on known dyes; cited from earlier work
strain TA98 = test: AMES test (reverse mutagenicity test), strain TA98, with and without S-9; type: cell-based; details: TA98, with and without S9, 20 to 5000 μg/plate
Protocol: (§1) Regarding specimen solutions containing the trisazo compounds (dyes) of the present invention obtained in Examples 1 to 9 and dyes of Comparative Examples 1 to 3, respectively, the total number of the mutant colony was determined using the strain TA98. When the resulting magnification is not more than 2, it is evaluated as "negative". On the other hand, when the resulting magnification is not less than 2, it is evaluated as "positive".
(§2) In Table 1, the modification in case that no drug-metabolizing active enzyme S-9 is added is shown in the column "-" and the modification in case that a drug-metabolizing active enzyme S-9 is added is shown in the column "+".

[3] = Solubility of dye (Na salt) in water; type: physicochemical
Protocol: Evaluation Method of Solubility of Dye
A Na salt (2 g) of the resulting dye was dissolved in water (10 g), and the dye solution was filtered and concentrated/dried to determine a solubility (g of dye/100 g of water) of the dye.

[4] = AMES test (reverse mutagenicity test), strain TA98, with and without S-9; type: cell-based; details: read-out: magnification of the total number of the mutant colony to the control
Protocol: as §1, §2

[5] = Stability of tetrazonium salt; type: physicochemical
[6] = s9, TA98, with S9, 313 μg/plate
[7] = s9, TA98, with S9, 1250 μg/plate
[8] = s9, TA98, with S9, 5000 μg/plate
[9] = s9, TA98, without S9, 20 μg/plate
[10] = s9, TA98, without S9, 78 μg/plate
[11] = s9, TA98, without S9, 313 μg/plate
[12] = s9, TA98, without S9, 1250 μg/plate
[13] = s9, TA98, without S9, 5000 μg/plate

Nc1ccc(C2(c3ccc(N)cc3)CCCCC2)cc1 [1,1-bis(4-aminophenyl)cyclohexane]
mutagenicity [1]: negative

Nc1ccc(N=Nc2ccc(N=Nc3c(S(=O)(=O)[O-])cc4cc(S(=O)(=O)[O-])c(N=Nc5ccc(N=Nc6ccc(N)cc6N)cc5)c(O)c4c3N)cc2)c(N)c1.[Na+].[Na+] [Comparative Example 1, C.I. Direct Black 19, reference compound]
results of AMES test [2]: false positive or positive | AMES Evaluation (strain TA98): Positive (when the resulting magnification is not less than 2, it is evaluated as "positive") | Solubility Dye(g)/water (100 g) [3]: 20 g of dye/100 g of water | Solubility Evaluation [3]: .circleincircle. (solubility is not less than 15)

Cc1cc(-c2ccc(N=Nc3c(S(=O)(=O)[O-])cc4cc(S(=O)(=O)[O-])c(N=Nc5ccccc5)c(O)c4c3N)c(C)c2)ccc1N=Nc1ccc(N)cc1N.[Na+].[Na+] [Comparative Example 2, C.I. Direct Black 154, reference compound]
results of AMES test [2]: false positive or positive | AMES Evaluation (strain TA98): Positive (when the resulting magnification is not less than 2, it is evaluated as "positive") | Solubility Dye(g)/water (100 g) [3]: 20 g of dye/100 g of water | Solubility Evaluation [3]: .circleincircle. (solubility is not less than 15)

CCCCc1ccc(N=Nc2c(S(=O)(=O)O)cc3cc(S(=O)(=O)O)c(N=Nc4ccc(C5(c6ccc(N=Nc7ccc(N)cc7O)cc6)CCCCC5)cc4)c(N)c3c2O)cc1 [Example 1]
AMES Evaluation (strain TA98): Negative (When the resulting magnification is not more than 2, it is evaluated as "negative") | fold induction ([4]; s9, TA98, with S9, 20 μg/plate): 1.21 | fold induction ([4]; s9, TA98, with S9, 78 μg/plate): 1.03 | fold induction [4, 6]: 0.9 | fold induction [4, 7]: 0.63 | fold induction [4, 8]: 0.69 | fold induction [4, 9]: 0.91 | fold induction [4, 10]: 0.86 | fold induction [4, 11]: 0.91 | fold induction [4, 12]: 0.95 | fold induction [4, 13]: 0.5 | Solubility Dye(g)/water (100 g) [3]: 12 g of dye/100 g of water | Solubility Evaluation [3]: .smallcircle. (solubility is within a range from 10 to 15)

CCCCc1ccc(N=Nc2c(S(=O)(=O)O)cc3cc(S(=O)(=O)O)c(N=Nc4ccc(C5(c6ccc(N=Nc7ccc(O)cc7O)cc6)CCCCC5)cc4)c(N)c3c2O)cc1 [Example 2]
AMES Evaluation (strain TA98): Negative (When the resulting magnification is not more than 2, it is evaluated as "negative") | fold induction ([4]; s9, TA98, with S9, 20 μg/plate): 1.09 | fold induction ([4]; s9, TA98, with S9, 78 μg/plate): 1.09 | fold induction [4, 6]: 0.55 | fold induction [4, 7]: 0.55 | fold induction [4, 8]: 0.42 | fold induction [4, 9]: 0.78 | fold induction [4, 10]: 0.7 | fold induction [4, 11]: 0.61 | fold induction [4, 12]: 0.39 | fold induction [4, 13]: 0.3 | Solubility Dye(g)/water (100 g) [3]: 15 g of dye/100 g of water | Solubility Evaluation [3]: .circleincircle. (solubility is not less than 15)

CCC(C)c1ccc(N=Nc2c(S(=O)(=O)O)cc3cc(S(=O)(=O)O)c(N=Nc4ccc(C5(c6ccc(N=Nc7ccc(N)cc7O)cc6)CCCCC5)cc4)c(N)c3c2O)cc1 (stereo not shown) [Example 3]
AMES Evaluation (strain TA98): Negative (When the resulting magnification is not more than 2, it is evaluated as "negative") | fold induction ([4]; s9, TA98, with S9, 20 μg/plate): 0.81 | fold induction ([4]; s9, TA98, with S9, 78 μg/plate): 1.31 | fold induction [4, 6]: 1 | fold induction [4, 7]: 0.56 | fold induction [4, 8]: 0.69 | fold induction [4, 9]: 0.81 | fold induction [4, 10]: 0.5 | fold induction [4, 11]: 0.5 | fold induction [4, 12]: 0.5 | fold induction [4, 13]: 0.69 | Solubility Dye(g)/water (100 g) [3]: 12 g of dye/100 g of water | Solubility Evaluation [3]: .smallcircle. (solubility is within a range from 10 to 15)

Nc1ccc(N=Nc2ccc(C3(c4ccc(N=Nc5c(S(=O)(=O)O)cc6cc(S(=O)(=O)O)c(N=Nc7ccccc7)c(O)c6c5N)cc4)CCCCC3)cc2)c(O)c1 [Example 4]
AMES Evaluation (strain TA98): Negative (When the resulting magnification is not more than 2, it is evaluated as "negative") | fold induction ([4]; s9, TA98, with S9, 20 μg/plate): 1.44 | fold induction ([4]; s9, TA98, with S9, 78 μg/plate): 1.4 | fold induction [4, 6]: 1.08 | fold induction [4, 7]: 1.16 | fold induction [4, 8]: 0.96 | fold induction [4, 9]: 1 | fold induction [4, 10]: 0.93 | fold induction [4, 11]: 1.07 | fold induction [4, 12]: 0.87 | fold induction [4, 13]: 0.93 | Solubility Dye(g)/water (100 g) [3]: 15 g of dye/100 g of water | Solubility Evaluation [3]: .circleincircle. (solubility is not less than 15)

CC(C)c1ccc(N=Nc2c(S(=O)(=O)O)cc3cc(S(=O)(=O)O)c(N=Nc4ccc(C5(c6ccc(N=Nc7ccc(N)cc7O)cc6)CCCCC5)cc4)c(N)c3c2O)cc1 [Example 5]
AMES Evaluation (strain TA98): Negative (When the resulting magnification is not more than 2, it is evaluated as "negative") | fold induction ([4]; s9, TA98, with S9, 20 μg/plate): 1.77 | fold induction ([4]; s9, TA98, with S9, 78 μg/plate): 1.27 | fold induction [4, 6]: 1.41 | fold induction [4, 7]: 1.45 | fold induction [4, 8]: 1.05 | fold induction [4, 9]: 0.9 | fold induction [4, 10]: 0.76 | fold induction [4, 11]: 1.07 | fold induction [4, 12]: 0.83 | fold induction [4, 13]: 0.48 | Solubility Dye(g)/water (100 g) [3]: 13 g of dye/100 g of water | Solubility Evaluation [3]: .smallcircle. (solubility is within a range from 10 to 15)

Cc1ccc(N=Nc2c(S(=O)(=O)O)cc3cc(S(=O)(=O)O)c(N=Nc4ccc(C5(c6ccc(N=Nc7ccc(N)cc7O)cc6)CCCCC5)cc4)c(N)c3c2O)cc1 [Example 6]
AMES Evaluation (strain TA98): Negative (When the resulting magnification is not more than 2, it is evaluated as "negative") | fold induction ([4]; s9, TA98, with S9, 20 μg/plate): 1.38 | fold induction ([4]; s9, TA98, with S9, 78 μg/plate): 1.43 | fold induction [4, 6]: 0.95 | fold induction [4, 7]: 0.68 | fold induction [4, 8]: 0.65 | fold induction [4, 9]: 1.19 | fold induction [4, 10]: 1.22 | fold induction [4, 11]: 1.48 | fold induction [4, 12]: 1.3 | fold induction [4, 13]: 1.15 | Solubility Dye(g)/water (100 g) [3]: 15 g of dye/100 g of water | Solubility Evaluation [3]: .circleincircle. (solubility is not less than 15)

CCCCc1ccc(N=Nc2c(S(=O)(=O)O)cc3cc(S(=O)(=O)O)c(N=Nc4ccc(C5(c6ccc(N=Nc7ccc(N(CC)CC)cc7C)cc6)CCCCC5)cc4)c(N)c3c2O)cc1 [Example 7]
AMES Evaluation (strain TA98): Negative (When the resulting magnification is not more than 2, it is evaluated as "negative") | fold induction ([4]; s9, TA98, with S9, 20 μg/plate): 1.03 | fold induction ([4]; s9, TA98, with S9, 78 μg/plate): 0.92 | fold induction [4, 6]: 0.81 | fold induction [4, 7]: 1.08 | fold induction [4, 8]: 1.03 | fold induction [4, 9]: 1.05 | fold induction [4, 10]: 1.1 | fold induction [4, 11]: 0.9 | fold induction [4, 12]: 0.62 | fold induction [4, 13]: 1.1 | Solubility Dye(g)/water (100 g) [3]: 12 g of dye/100 g of water | Solubility Evaluation [3]: .smallcircle. (solubility is within a range from 10 to 15)

CCCCc1ccc(N=Nc2c(S(=O)(=O)O)cc3cc(S(=O)(=O)O)c(N=Nc4ccc(C5(c6ccc(N=Nc7ccc(N(C)C)cc7C(=O)O)cc6)CCCCC5)cc4)c(N)c3c2O)cc1 [Example 8]
AMES Evaluation (strain TA98): Negative (When the resulting magnification is not more than 2, it is evaluated as "negative") | fold induction ([4]; s9, TA98, with S9, 20 μg/plate): 1.13 | fold induction ([4]; s9, TA98, with S9, 78 μg/plate): 0.94 | fold induction [4, 6]: 1.06 | fold induction [4, 7]: 0.53 | fold induction [4, 8]: 0.59 | fold induction [4, 9]: 0.76 | fold induction [4, 10]: 0.86 | fold induction [4, 11]: 0.86 | fold induction [4, 12]: 0.76 | fold induction [4, 13]: 0.71 | Solubility Dye(g)/water (100 g) [3]: 15 g of dye/100 g of water | Solubility Evaluation [3]: .circleincircle. (solubility is not less than 15)

CCCCc1ccc(N=Nc2c(S(=O)(=O)O)cc3cc(S(=O)(=O)O)c(N=Nc4ccc(C5(c6ccc(N=Nc7ccc(N(C)C)cc7O)cc6)CCCCC5)cc4)c(N)c3c2O)cc1 [Example 9]
AMES Evaluation (strain TA98): Negative (When the resulting magnification is not more than 2, it is evaluated as "negative") | fold induction ([4]; s9, TA98, with S9, 20 μg/plate): 1.15 | fold induction ([4]; s9, TA98, with S9, 78 μg/plate): 1.37 | fold induction [4, 6]: 0.77 | fold induction [4, 7]: 0.41 | fold induction [4, 8]: 0.59 | fold induction [4, 9]: 0.77 | fold induction [4, 10]: 0.73 | fold induction [4, 11]: 0.58 | fold induction [4, 12]: 0.38 | fold induction [4, 13]: 0.54 | Solubility Dye(g)/water (100 g) [3]: 12 g of dye/100 g of water | Solubility Evaluation [3]: .smallcircle. (solubility is within a range from 10 to 15)

N#[N+]c1ccc(C2(c3ccc([N+]#N)cc3)CCCCC2)cc1 [tetrazonium salt, tetrazonium salt of 1,1-bis(4-aminophenyl)cyclohexane]
stability of tetrazonium salt [5]: comparatively stable

C.I. Direct Black 168 [Comparative Example 3, reference compound]
results of AMES test [2]: false positive or positive | Solubility Dye(g)/water (100 g) [3]: 20 g of dye/100 g of water | Solubility Evaluation [3]: .circleincircle. (solubility is not less than 15)
